Data reported in patent publication US9717796B1, “Heat sterilizeable, premixed, ready to use dexmedetomidine solution packaged in a flexible plastic container” (SLYPHARMA, LLC, priority 2016, dated 2017).
Like-named read-outs stand apart in the source and are kept apart here.

Tests used:
[1] = cited from earlier work
[2] = DEHP used as plasticizer in PVC bags; cited from earlier work
[3] = remark: listed apart in the source
Experimental: A composition was prepared containing 4.0 μg Dexmedetomidine and 50 mg dextrose to adjust tonicity with sufficient water to bring the total volume to 1 mL.

Question: Which results are given for `Cc1cccc([C@H](C)c2cnc[nH]2)c1C` [dexmedetomidine, (S)-4-[1-(2,3-dimethylphenyl)ethyl]-3H-imidazole]?
Answer: potency loss ([1]; CR3 elastomer copolyester ether bags and PVC bags, autoclaving): 20%; drug recovered in MeOH rinse of emptied bags ([1]; CR3 elastomer copolyester ether bags): Nearly all; drug recovered in MeOH rinse of emptied bags ([1]; PVC bags): 1%; total percent of impurities ([1]; autoclaved premixed composition in PVC and CR3 bags): less than 20%; drug loss ([1]; formulation with a buffer system, plastic bags): ~10%; dexmedetomidine lost through adsorption ([1]; premixed solution in plastic materials): up to 20%; dexmedetomidine retained after autoclaving in moist steam (5.5 mg/mL sodium chloride and 28 gram/mL sodium acetate and 320 mg/mL glacial acetic acid as buffer): 90.1%; retention of the dexmedetomidine after autoclaving in moist steam (buffer (28 g/mL sodium acetate and 320 mg/mL glacial acetic acid) with dextrose as tonicity adjusting agent, Nexcel bag): 99.4%; retention of the dexmedetomidine after autoclaving in moist steam (buffer (28 g/mL sodium acetate and 320 mg/mL glacial acetic acid) with sucrose as tonicity adjusting agent, Nexcel bag): 99.0%; dexmedetomidine retained after autoclaving in moist steam (solution comprising 9 mg/mL sodium chloride, Nexcel bag): 93%; solubility in DEHP [2]: soluble; time the solution will be stable at room temperature ([3]; Example 1 solution (dextrose) in Nexcel bag, extrapolated from the accelerated test): about 24 months; adsorption or absorption by the ethylene-vinyl acetate copolymer inner-most bag layer ([3]; Example 1 solution, Nexcel bag, storage tests): not adsorbed or absorbed
